In publication PMC7127602 (Bioorganic & Medicinal Chemistry, 2007):

Biological target: SARS-CoV M^pro (Severe acute respiratory syndrome coronavirus, UniProt P0C6X7)
Assay type: biochemical

Row | SMILES | Increase in IC50 relative to compound 2
1 | O=C(Oc1cncc(Cl)c1)c1ccc(-c2ccccc2[N+](=O)[O-])o1 [compound 4] | threefold
2 | O=C(Oc1cncc(Cl)c1)c1ccc(-c2cccc([N+](=O)[O-])c2)o1 [compound 5] | eightfold
